Data on 1 compound can be found in patent US20140322315A1, “CYSTEAMINE AND/OR CYSTAMINE FOR TREATING ISCHEMIC INJURY” (The Regents of the University of California, priority 2011, published 2014).

In one series the test system is subjects with NAFLD. The series is described as follows: Pilot study of EC-cysteamine in children with NAFLD: ALT, AST, BMI, leptin, responders. In kind it is in vivo, human. As to conditions: for mean AST / mean ALT: all study subjects; for mean AST: baseline 60.9 IU/L; for mean ALT: baseline 123 IU/L; for mean leptin level: responders, baseline 21.3 ng/mL. From the text: (§1) Eleven children ≧10 years, with biopsy-proven NAFLD and an alanine aminotransferase (ALT) level ≧60 IU/L, were enrolled. They were either newly diagnosed or had not received specific therapy for NAFLD such as vitamin E or insulin-sensitizing drugs for at least 3 months before entering the study. All had undertaken standard of care lifestyle changes involving diet and exercise for more than 3 months. The study's primary outcome measure was normalization (≦40 IU/L) or 50% reduction in baseline serum ALT at 24 weeks of EC-cysteamine therapy; these subjects were deemed responders.
(§2) Subjects were treated for 24 wks and remained monitored for 24 weeks following its discontinuation. The mean EC-cysteamine dose ingested was 654 mg twice daily or 15.2 mg/kg/day (median dose 900 mg) for 24 wks.
(§3) During the pilot study blood was collected at pre-defined intervals. Serum was stored at −80° C. until time of assay. Adequate serum volumes were available in 10 of the 11 subjects with NAFLD and only up to 16 weeks post-treatment.

The subject of the next series is circulating leukocytes. The settings on record: Dohil et al., J. Pediatr 2006; cited from earlier work.
The test system of series [1] is adiponectin. The series is described as follows: Serum total and multimeric adiponectin in subjects with NAFLD treated 24 weeks with EC-cysteamine. The format is in vivo, human.
Text: as §1, §2, §3
(§4) Total and multimeric adiponectin levels were measured in serum taken from: (1) subject with NAFLD collected at 0 and 24 wks of cysteamine therapy and again 16 wks after stopping therapy (i.e., 40 weeks); (2) pretreated 0-week subjects with NAFLD and adults without NAFLD at room temperature and at 37° C. and also after incubation with cysteamine 90 μM for 1 hour at 37° C.; and (3) pretreated 0-week subjects with NAFLD before and after incubation with cysteamine at varying concentrations (15, 30, 45, 60, 90, 120 μM) for 1 hour at 37° C. to establish dose-response profile.
(§5) Sodium dodecyl sulfate polyacrylamide gel electrophoresis (SDS-PAGE) was performed according to standard Laemmli's method. Sample buffer for non-reducing, non-heat denaturing conditions contained 3% SDS; 50 mmol/1 Tris-HCL, pH 6.8 and 20% glycerol. Proteins were separated using 3-8% Tris-Acetate Gels (Invitrogen, Carlsbad Calif.) with Tris-Acetate running buffer per manufacturer instructions. For immunoblotting, proteins were transferred to nitrocellulose membranes. Membranes were washed with Tween (Tris-buffered Saline, 0.1% […]) and incubated with monoclonal antibody (1:500 BD Transduction Laboratories, San Diego, Calif.). After washing with Tris-buffered saline with 0.1% Tween (4×5 min) membranes were incubated with L-COR secondary antibodies (LI-COR Biotechnology, Lincoln Nebr.) at 1:20,000. Adiponectin multimers were detected and quantified using the LICOR imager and software analysis program. Relative distribution of adiponectin multimers was determined by dividing band density by total density (cellular adiponectin) or by total adiponectin as determined by ELISA (Millipore, Billerica, Mass.). The percentage of adionectin multimer was then multiplied by the total adiponectin level to calculate absolute oligomer value.

For another series, the target named is T1, adiponectin multimers (Homo sapiens, UniProt Q15848).
T1 construct: from tissue; host or cells: human serum (pretreatment NAFLD subjects; adults without NAFLD)
T1 sequence (Q15848 19-244): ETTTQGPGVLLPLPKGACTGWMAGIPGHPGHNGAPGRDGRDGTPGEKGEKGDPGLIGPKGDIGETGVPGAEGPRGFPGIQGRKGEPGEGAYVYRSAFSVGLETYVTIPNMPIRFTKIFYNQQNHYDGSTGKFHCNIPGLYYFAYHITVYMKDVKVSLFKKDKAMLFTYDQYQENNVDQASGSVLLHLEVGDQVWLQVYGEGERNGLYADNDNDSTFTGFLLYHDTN
Description: Dose response profile: NAFLD serum incubated with varying cysteamine concentrations, adiponectin multimers. In kind it is biochemical. As to conditions: 1 hour at 37° C. As for the experimental part:
as §4, §5

On the set-up of series [2]: species or system mice (C57BL/6). As to conditions: mouse, in vivo.
In series [3] the test system is adiponectin. Description: Adiponectin secretion by adipose tissue explants / isolated fat cells cultured with cysteamine. In kind it is cell-based. As to conditions: 90 μM cysteamine, 45 min; p=0.002. The protocol: Fat biopsy adipose tissue (AT) samples were collagenase digested×1 hr at 37° C. in a rotating waterbath. Digested AT was then filtered through 425 μm nylon mesh to separate fat cells. Isolated fat cells (FC) were twice washed in physiologic salts buffer (Phillips 2008), filtered and twice washed again. FC were spun at 50×g to concentrate. 1 ml FC were resuspended in 9 ml of defined culture media (Phillips 2008) and FC were allowed to recover×10 hrs overnight at 37° C.
Adipocytes were isolated and allowed to recover×overnight then cultured with or without 90 μM cysteamine and media collected at the following time points (45, 90, 180, 24 hr). Western Blot analysis of 20 μl of media was performed with non-reducing 5× Loading buffer. […] The blot was washed and incubated with a secondary antibody (Goat anti-mouse IR 800) and densitometry measured on a LICOR densitometer. […]
To determine the time course of cysteamine effects on adiponectin, media was changed and FC were resuspended in 9 ml of defined media ±90 μM cysteamine. FC content and secretion of adiponectin into the media was assessed in duplicate culture at 0, 45, 90, 180 minutes and 24 hr. […] Signal detection and quantitative analysis was completed using the LiCOR Odyssey Machine (LiCOR, Lincoln, Nebr.). Multimeric content of cellular adiponectin was determined by dividing the AU for the multimer by the total AU per sample. […]

Consider `NCCS` [cysteamine, Cysteamine], for which the “responders (ALT normalization ≦40 IU/L or 50% reduction at 24 weeks)” value with subjects with NAFLD (24 weeks EC-cysteamine therapy, subjects with serum analyzed) is “Seven of the 10”. The “mean AST” value in the series with subjects with NAFLD (24 weeks of treatment, P=0.001) was determined as 32 IU/L; in the series with subjects with NAFLD (40 weeks (16 weeks off therapy), P=0.012), 35 IU/L. Moreover, the “mean ALT” value in the series on subjects with NAFLD (24 weeks of treatment, P=0.003) is 55 IU/L; in the series with subjects with NAFLD (40 weeks (16 weeks off therapy), P=0.055), 71 IU/L. The mean leptin level was 15.7 ng/mL in the series with subjects with NAFLD (24 weeks, P=0.04) and 19.5 ng/mL with subjects with NAFLD (40 weeks). In addition, the “intracellular cystine levels in circulating leukocytes” value in the series with circulating leukocytes is “lowering”. For the same compound, in the series on adiponectin [1] (24 weeks of oral EC-cysteamine), the “all sub-forms (multimer forms) of adiponectin, change from baseline” value is recorded as “increased”. The “total adiponectin, baseline vs 40 wks” value in the series on adiponectin [1] (40 weeks (therapy stopped at 24 weeks)) is “No significant difference”. Moreover, the “relative proportion of HMW in total adiponectin” value with adiponectin [1] (after 24 weeks cysteamine therapy, baseline 12.2%, P=0.02) is recorded as “increased significantly”. The “relative proportion of LMW in total adiponectin” value in the series on adiponectin [1] (after 24 weeks cysteamine therapy, baseline 14.1%) is listed as “remained unchanged”. In the series with adiponectin [1] (after 24 weeks cysteamine therapy, baseline 73.7%, P=0.03), the “relative proportion of MMW in total adiponectin” value is listed as “decreased”. Further, the “total adiponectin change between 24-week and 40-week timepoints” value with adiponectin [1] (after discontinuing therapy at 24 weeks, P=0.01) is given as “significant decrease”. Further, the “mean percent increase of total adiponectin from baseline” value with adiponectin [1] (all subjects, 0-24 weeks oral EC-cysteamine, P=0.05) is given as “significantly increased”. On adiponectin multimers (120 μM cysteamine), the “HMW level vs baseline” value is recorded as “reductions”. Besides, on adiponectin multimers (120 μM cysteamine), the “MMW level vs baseline” value was “reductions”. Besides, the “greatest percent increase in LMW” value on adiponectin multimers (120 μM cysteamine) is on record as 77%. The “MMW levels vs baseline” value on adiponectin multimers (all cysteamine concentrations (15-120 μM)) was “lower than baseline”. For the same compound, the “mean LMW level increase above baseline” value on adiponectin multimers (all cysteamine concentrations used (15-120 μM)) is reported as more than 60%. Also, the “HMW level increase above baseline” value on adiponectin multimers (cysteamine 15, 30, 45, and 60 μM) is on record as “about 10%”. Moreover, the body weight reduction in series [2] was 14%. Also, the mean terminal weight in series [2] amounted to 18.3 g. Besides, the “total adiponectin, treated vs untreated” value with adiponectin [3] is “Significant difference”.
